Experimental data taken from PubChem BioAssay (NCI).
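Assay format: 96-well plates, 48-hour exposure. TGI denotes the concentration required for complete inhibition of growth.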

Assays:
Assay in all cases: NCI tumour cell line growth inhibition, 48 h
[1] = test system: DMS 114 small cell lung
[2] = test system: DMS 273 small cell lung
[3] = test system: HOP-18 NSCLC
[4] = test system: KM20L2 colon
[5] = test system: LXFL 529 NSCLC
[6] = test system: M19-MEL melanoma
[7] = test system: SNB-78 CNS
[8] = test system: UACC-257 melanoma
[9] = test system: DLD-1 colon
[10] = test system: RXF-631 renal
[11] = test system: XF 498 CNS

Measured: TGI

OC12c3ccccc3C1CCCCCCCCCC21OCCO1 (stereo not drawn)
not listed: [9] | [10] | [11]
> 100 µM: all other assays above

c1ccc(SC23C4C5C6C4C2C6C53)nc1 (stereo not drawn)
not listed: [11]
> 100 µM: all other assays above

CCn1c2c(c3ccccc31)[C@@H](c1ccc(Cl)cc1)CC1C(=O)N(c3ccccc3)C(=O)C21 (stereo partly drawn)
not listed: [10]
> 100 µM: all other assays above
